The record followed here is patent US4731370A, “Pyridyl ester containing 1,4-dihydropyridine derivatives and salts thereof and pharmaceutical composition containing the same” (Toyama Chemical Co., Ltd., priority 1984, dated 1988).

SMILES strings stand for the structures. Counter-ions that a name gives are not always drawn.

Data set [1] has as its system coronary vessel (isolated guinea pig heart). The data set can be described thus: Coronary vasodilating activity (isolated perfused guinea pig heart, coronary effluent). Also on record: species or system guinea pig (Hartley strain). To be noted: Langendorff perfusion, 0.1 ml into aorta, hydrochloride. The protocol:
(§1) The compounds of this invention to be tested were used in the form of a hydrochloride.
The heart of a guinea pig (Hartley strain, male, 500-700 g, 3 heads per group) was isolated and set in the Landendorff perfusing apparatus. About 0.5% defibrinated blood was fed to the apparatus, and the Krebs bicarbonate solution, into which a mixed gas consisting of 95% of O2 and 5% of CO2 had been bubbled was perfused over the heart, after which a 1 mg/ml solution of the test compound in an aqueous solution containing 10% by volume of dimethylsulfoxide and 10% of polyoxyethylfatty acid glyceride [Cremophor EL manufactured by Sigma] was prepared, diluted with a saline solution to the desired concentration, and then administered into the heart in an amount of 0.1 ml through the rubber tube attached to the cannula inserted retrogressively into the aorta. The vasodilating activity was determined by measuring the amount of the solution effluent from the coronary vessel after passing through the aorta by means of an electric drop counter (universal drop counter manufactured by Natsume Seisakusho) and indicated as ED50 value which is the amount necessary for the amount of the effluent solution to increase 50% as compared with those before addition of the test compound.

Data set [2] deals with vertebral artery blood flow of a dog. Briefly: Vertebral artery blood flow increasing activity. Format: in vivo, dog (mongrel). To be noted: i.v., amount with same activity as 1 mg/kg (i.v.) papaverine hydrochloride, ratio to papaverine hydrochloride. The method, then:
as §1
The vertebral artery blood flow of a dog (mongrel, 12-22 kg, 2-3 heads per group) anesthetized with pentobarbital sodium (30 mg/kg, i.v.) was measured by means of an electromagnetic flow meter (MFV-2100 manufactured by Nihon Kohden Kogyo).
The test compounds 1, 3 and 10 were adjusted to a concentration of 1 mg/ml with distilled water, and then diluted with a saline solution to the desired concentrations, after which the thus diluted solutions were intravenously administered, and the test compounds 12, 15, 18, 19, 20, 24, 29, 30, 32 and 33 were formed into solutions in the same manner as in Item 1 above and then intravenously administered.

The test system of data set [3] is Thromboxane-Synthesizing Enzyme. Briefly: Thromboxane-synthesizing enzyme-inhibitory activity (MDA production in platelet-rich plasma after oral dosing). Format: in vivo, rat (Wistar strain). The note with it: rat, 3 mg/kg, blood after one hour. The protocol: as §1
To a rat (Wistar strain, male, 300-350 g, 4 heads per group) which had been starved overnight was orally administered a test compound solution, and blood was collected from the abdominal aorta using citric acid after one hour. Two milliliters of a 1×10^9 /ml platelet-rich plasma (PRP) was preincubated at 37° C. for 2 minutes. Subsequently, 0.1 ml of 10 mM sodium archidonate was added, and the resulting mixture was subjected to reaction for 6 minutes, after which indomethacin was added thereto to terminate the reaction. The reaction mixture was subjected to deproteinization treatment and reacted with thiobarbituric acid (TBA) reagent, after which the reaction mixture was subjected to extraction with 3 ml of n-butanol. The resulting extract was subjected to colorimetry (λ=532 nm) to determine the amount of malondialdehyde (MDA) produced. As to the platelet-poor plasma (PPP) obtained from the same rat as above, the same procedure as above was repeated to determine the amount of MDA produced, and the difference between the two is indicated as MDA value. Comparing with the MDA values of the control group, the MDA production-inhibition (%) was determined.
The test compounds 1-9 were adjusted to the desired concentrations with water and the test compounds 11-33 and nicardipine were adjusted to a concentration of 5 mg/ml with an aqueous solution containing 10% of each of dimethyl sulfoxide and Cremophor and then diluted with water to the desired concentrations.

Data set [4] has as its system mouse pulmonary infraction model. The data set can be described thus: Antithrombosis activity, mouse pulmonary infraction model, paralytic time-shortening (0.15 ml epinephrine/collagen). Format: in vivo, mouse (ICR strain). The note with it: 1 h, oral, challenge after one hour, 10 mice, read-out: Paralytic time-shortening percentage. The method, then:
as §1
Comparing the paralytic time of the control group, the paralytic time-shortening percentage due to the compound to be tested was determined.
(§2) The test compounds shown in Table 4 were adjusted to the desired concentrations with water, and the test compounds shown in Table 5 were adjusted to a concentration of 5 mg/ml with an aqueous solution containing 10% by volume of each of dimethyl sulfoxide and Cremophor, and then diluted with water to the desired concentrations.

Data set [5] shares this test system. Briefly: Antithrombosis activity, mouse pulmonary infraction model, prevention of death and paralysis (0.10 ml epinephrine/collagen). To be noted: Mus musculus, po, 1 h, read-out: Preventive percentage of death + paralysis for 10 minutes or more. Format: in vivo, mouse (ICR strain). The method, then:
as §1
According to the G. DiMinno and M. J. Silver method [J. Pharmacol. Exp. Therap., 225 (1) 57-60 (1983)], a solution of the compound to be tested was orally administered to a mouse (ICR strain, male, 4 weeks old), and 0.15 ml of a mixed solution of epinephrine (100 μM) and collagen (150 μg/ml) was intravenously administered to the mouse after one hour, after which the paralytic time was measured. Comparing the paralytic time of the control group, the paralytic time-shortening percentage due to the compound to be tested was determined. The results obtained are shown in Table 4, in which the case where the paralytic time was 15 minutes was calculated as death.
Moreover, the same experiment was repeated, except that 0.10 ml of a mixed solution of epinephrine (100 μM) and collagen (150 μg/ml) was intravenously administered to the mouse and the effect of preventing the appearance of death and a case where the paralytic time was 10 minutes or more was checked and the results thereof are shown in Table 5.
as §2

Data set [6] is described as follows: Acute toxicity, intravenous, mice. The note with it: mouse, in vivo, mice (ICR, male, 4 weeks old, 5 per group).

`COC(=O)C1=C(C)NC(C)=C(C(=O)OCCN(C)Cc2ccccc2)C1c1cccc([N+](=O)[O-])c1` (centres unmarked) [Nicardipine, 3-[2-(N-benzyl-N-methylamino)ethyl]5-methyl 2,6-dimethyl-4-(3-nitrophenyl)-1,4-dihydropyridine-3,5-dicarboxylate hydrochloride, reference compound]: the “ED50 (amount necessary for the amount of the effluent solution to increase 50%)” value in data set [1] was 0.042 μg/i.c. Besides, the Effect ratio in data set [2] amounted to 220. Also, in data set [3], the MDA production-inhibition is 2.7%. The inhibition in vivo at 10 mg/kg in data set [4] turned out to be 6.3%. The responders at 10 mg/kg in data set [5] came to 0%.

On to `C/C(=C\c1ccc(Cc2cccnc2)cc1)C(=O)O` [OKY-1581, Sodium (E)-3-[4-(pyridin-3-ylmethyl)phenyl]-2-methylpropenoate, reference compound], for which, in data set [4] (300 mg/kg), the inhibition in vivo at 300 mg/kg amounted to 9.5%. In addition, in data set [5], the responders at 30 mg/kg turned out to be 10%.

As to `CC1=C(C(=O)OCCN(C)C/C(C)=C/c2ccc(Cc3cccnc3)cc2)C(c2cccc([N+](=O)[O-])c2)C(C(=O)OC(C)C)=C(C)N1` (centres unmarked) [compound 1], the Effect ratio in data set [2] was 238. The MDA production-inhibition in data set [3] came out at 59.4%. Moreover, the inhibition in vivo at 10 mg/kg in data set [4] amounted to 52.3%.

In turn, `COC(=O)C1=C(C)NC(C)=C(C(=O)OCCN(C)C/C(C)=C/c2ccc(Cc3cccnc3)cc2)C1c1cccc([N+](=O)[O-])c1` (centres unmarked) [compound 2] yielded an MDA production-inhibition in data set [3] of 63.2%. Besides, in data set [4], the inhibition in vivo at 10 mg/kg came to 84.1%. The compound also gave an LD50 in data set [6] not below 30 mg/kg.

Compound `CC1=C(C(=O)OCCN(C)C/C(C)=C/c2ccc(Cc3cccnc3)cc2)C(c2cccc(Cl)c2Cl)C(C(=O)OC(C)C)=C(C)N1` (centres unmarked) [compound 5] displayed an MDA production-inhibition in data set [3] of 57.9%. The inhibition in vivo at 10 mg/kg in data set [4] worked out at 93.9%.

With `CC1=C(C(=O)OCCN(C)C/C(C)=C/c2ccc(Cc3cccnc3)cc2)C(c2ccccc2C(F)(F)F)C(C(=O)OC(C)C)=C(C)N1` (centres unmarked) [compound 6], in data set [3], the MDA production-inhibition is listed as 60.6%. Also, the inhibition in vivo at 10 mg/kg in data set [4] was 87.9%.

With `CC1=C(C(=O)OCCN(C)C/C=C/c2ccc(Cc3cccnc3)cc2)C(c2cccc([N+](=O)[O-])c2)C(C(=O)OC(C)C)=C(C)N1` (centres unmarked) [compound 7], the MDA production-inhibition in data set [3] is 52.8%. Moreover, the inhibition in vivo at 10 mg/kg in data set [4] stood at 36.4%. This compound also came in with an LD50 in data set [6] not below 30 mg/kg.

Consider `CC1=C(C(=O)OCCNC/C(C)=C/c2ccc(Cc3cccnc3)cc2)C(c2cccc([N+](=O)[O-])c2)C(C(=O)OC(C)C)=C(C)N1` (centres unmarked) [compound 8], for which the MDA production-inhibition in data set [3] was 64.9%. Further, the inhibition in vivo at 10 mg/kg in data set [4] stood at 47.9%. In addition, in data set [6], the LD50 was not below 30 mg/kg.

Consider `CCOC(=O)C1=C(C)NC(C)=C(C(=O)OCCN(C)C/C(C)=C/c2ccc(Oc3cccnc3)cc2)C1c1cccc([N+](=O)[O-])c1` (centres unmarked) [compound 10], for which the Effect ratio in data set [2] is listed as 641. The inhibition in vivo at 10 mg/kg in data set [4] is 79.2%. For the same compound, the LD50 in data set [6] is not below 30 mg/kg.

A word on the LD50: it is the dose at which mortality reaches 50%. High values mean lower toxicity, low ones greater toxicity.
